Reference: patent US20220265606A1, “ANTICANCER AGENTS” (The Texas A&M University System, priority 2019, published 2022)
Where two headings read alike, the source gives them in different places.

Assays:
[1] = target: NR4A2 ligand binding domain (LBD) (Homo sapiens, UniProt P43354); test: Ligand-induced quenching of NR4A2 LBD tryptophan fluorescence
Experimental: Quenching of NR4A1 Tryptophan Fluorescence by Direct Ligand Binding. Tryptophan fluorescence spectra were obtained as described herein. Briefly, histidine-tagged ligand binding domain (LBD) of NR4A1 at a final concentration of 0.5 μmol/L in 1.0 mL of phosphate-buffered saline (PBS, pH 7.4) was used for fluorescence measurements. The protein was incubated for 3 min at 25 °C in a temperature-controlled (Quantum Northwest TC125) fluorescence spectrophotometer (Varian Cary Eclipse). […] Ligand only fluorescence intensity at each ligand concentration was used to correct the NR4A1 tryptophan fluorescence intensity as described in the above references.
Accordingly, ligand binding assay for NR4A1 and NR4A2 which measures ligand-induced quenching of tryptophan fluorescence by the ligand were developed to further characterize activity with respect to NR4A1 and NR4A2. A tryptophane residue is located in the ligand binding domain (LBD) of both receptors and the LBD of the receptor is used in the binding assay.

[2] = system: vasoactive intestinal peptide (VIP) in pancreatic cancer cells; details: initial (background) work; cited from earlier work
dopaminergic neurons = details: in vivo, previous studies; cited from earlier work
[3] = previous studies, cited from earlier work
15037 cells = test: 3D tumor spheroid invasion assay; details: 10 μM, vs DMSO
Experimental: Three-Dimensional (3D) Tumor Spheroid Invasion Assay. The cells were suspended in the complete medium (2×10^4 cells/ml). […] The plate was transferred to the incubator for 1 hr and 100 μl of the complete media containing 3 times the desired final concentration of compounds was supplemented and then incubated for 3-5 days followed by fixation in 4% formaldehyde. Spheroid invasion was determined by measuring the cross-sectional areas of the spheroid center and the rim of invaded cells using ImageJ.

NR4A2 [4] = system: NR4A2
Experimental: (§2) Transactivation Assay. Cells (8×10^4) per well were plated on 12-well plates in DMEM/F-12 supplemented with 2.5% charcoal-stripped FBS and 0.22% sodium bicarbonate. After 24 h growth, various amounts of DNA [i.e., UASx5-Luc (400 ng), GAL4-Nurr1 (40 ng) and β-gal (40 ng)] were cotransfected into each well by Lipofectamine 2000 reagent (Invitrogen, Carlsbad, Calif.) according to the manufacturer's protocol. After 5-6 hr of transfection, cells were treated with plating media (as above) containing either solvent (DMSO) or the indicated concentration of compounds for 24 hr. Cells were then lysed using a freeze-thaw protocol and 30 μL of cell extract was used for luciferase and β-gal assays. LumiCount (Packard, Meriden, Conn.) was used to quantify luciferase and β-gal activities. Luciferase activity values were normalized against corresponding (3-gal activity values as well as protein concentrations determined by Lowry's Method.

NR4A2 [5] = details: Panc1 / pancreatic cancer cells
Experimental: as §2

glioblastoma cells [6] = test: Western blot of apoptosis markers in whole cell lysates; assay type: cell-based, human
Experimental: Western Blot Analysis. 17008, 15037, 14104s, 14015s, 15049, U87-MG, A172, T98G, and CCF-STTG1 cells were seeded at density of 1.5×10^5 per ml in 6 well plates and treated with various concentration of compounds and whole cell proteins were extracted using RIPA lysis buffer containing 10 mM Tris-HCl (pH 7.4), 150 mM NaCl, 1 mM ethylenediaminetetraacetic acid (EDTA), 1% Triton X-100 (w/v), 0.5% sodium deoxycholate and 0.1% sodium dodecylsulphate (SDS) with protease and phosphatase inhibitor cocktail. Protein concentrations were measured using Lowry's method and equal amounts of protein were separated in 10% and 15% SDS-PAGE and transferred to a Polyvinylidene difluoride (PVDF) membrane. PVDF membranes were incubated overnight at 4° C. with primary antibodies in 5% skimmed milk and incubated for 2-3 hr with secondary antibodies conjugated with horseradish peroxidase (HRP). Membranes were then exposed to HRP-substrate and immune reacted proteins were detected with chemiluminescence reagent.
(§1) Glioblastoma cells were treated with different concentrations of 4-Cl (FIG. 6A), 3-CF3-4-Cl (FIG. 6B), and 2-OH-4-Br (FIG. 6C) and effects on induction of Annexin V were determined as outlined herein. Glioblastoma cells were treated with different concentrations of NR4A2 antagonists and whole cell lysates were analyzed for markers of apoptosis by western blots.

[7] = system: U87-MG cells as xenografts; test: Xenograft study; assay type: in vivo, athymic nu/nu mice
Experimental: Xenograft Study. Female athymic nu/nu mice (4-6 weeks old) were purchased from Harlan Laboratories (Houston, TX). U87-MG cells (1×10^6) were harvested in 100 μl of DMEM and suspended in ice-cold Matrigel (1:1 ratio) and s.c. injected to either side of the flank area of the mice. After one week of tumor cell inoculation, mice were divided into two groups of 5 animals each. The first group received 100 μL of vehicle (corn oil), and second group of animals received an injection of 30 mg/kg/day of C-DIM 12 in 100 μl volume of corn oil by i.p. for three weeks. All mice were weighed once a week over the course of treatment to monitor changes in body weight. Tumor volumes could not be determined over the period of treatment because xenografted tumors were relatively deep. After three weeks of treatment, mice were sacrificed and tumor weights were determined.

glioblastoma cells [8] = test: Measurement of apoptosis (Annexin V staining); assay type: cell-based, human; details: 24 hr
Experimental: Measurement of Apoptosis (Annexin V Staining). Cancer cells were seeded at density of 1.5×10^5 per ml in 6 well plates and treated with either vehicle (DMSO) or compounds for 24 hr.
as §1

[9] = system: vasoactive intestinal peptide (VIP) gene expression in Panc1 cells; test: VIP gene expression by quantitative PCR in Panc1 cells
Experimental: (§3) The effects of bis-indole and quinoline derivatives on activation of the NR4A2 regulated genes vasoactive intestinal peptide (VIP) was investigated. […] Relative expression levels of VIP were determined by quantitative PCR analysis. Results are expressed as means±SD for at least six separate determinations for each treatment.

[10] = system: vasoactive intestinal peptide (VIP) gene expression in Panc28 cells; test: VIP gene expression by quantitative PCR in Panc28 cells
Experimental: as §3

NR4A1 LBD = target: T1, NR4A1 LBD (Homo sapiens, UniProt P22736); test: NR4A1/bisANS fluorescence binding
T1 construct: histidine tag
Experimental: The binding affinity (Kd) and binding stoichiometry (Bmax) of NR4A1/bisANS were determined essentially as described in FEBS Journal, 2014, 281, 2266-2283. For NR4A1/bisANS the binding affinity (Kd) was determined to be […] and the binding stoichiometry (Bmax) was determined to be 0.80 mol bisANS/mol NR4A1. The ability of ligand to displace bisANS was analyzed essentially as described in FEBS Journal, 2014, 281, 2266-2283. Briefly, histidine-tagged NR4A1 LBD (final concentration=0.05 μmon PBS, pH 7.4) was incubated at 25° C. for 3 min in the presence of 5.0 μmol bisANS/L. The bisANS fluorescence spectrum was obtained utilizing a Varian Cary Eclipse fluorescence spectrophotometer with an excitation wavelength of 365 nm (excitation slit width=5 nm) and an emission wavelength range of 400-600 nm (emission slit width=5 nm). Ligand titration was accomplished as described above for direct ligand binding using a stock ligand concentration of 10 mmol ligand/L ethanol. Addition of ethanol only had no effect on NR4A1/bisANS fluorescence (data not shown). […] Ligand/bisANS fluorescence intensity at each ligand concentration was used to correct the NR4A1/bisANS/ligand fluorescence intensity as described in the above reference.

Sequence of NR4A2 ligand binding domain (LBD) (P43354 360-595 limits assumed, species assumed): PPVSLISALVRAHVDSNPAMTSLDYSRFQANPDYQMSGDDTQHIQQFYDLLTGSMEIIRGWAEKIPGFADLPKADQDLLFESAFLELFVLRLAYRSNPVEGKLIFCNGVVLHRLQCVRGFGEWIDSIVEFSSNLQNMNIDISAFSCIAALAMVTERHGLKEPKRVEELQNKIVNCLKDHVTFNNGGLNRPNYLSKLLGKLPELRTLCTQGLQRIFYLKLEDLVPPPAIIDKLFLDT
T1 sequence (P22736 360-595 limits assumed, species assumed): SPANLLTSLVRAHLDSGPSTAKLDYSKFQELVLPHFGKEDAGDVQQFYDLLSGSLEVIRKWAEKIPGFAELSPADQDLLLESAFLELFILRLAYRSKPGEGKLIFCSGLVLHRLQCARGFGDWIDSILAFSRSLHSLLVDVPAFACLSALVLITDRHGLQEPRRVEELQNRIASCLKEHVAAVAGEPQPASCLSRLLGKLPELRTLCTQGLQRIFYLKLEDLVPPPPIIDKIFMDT

SMILES	Binding to NR4A2 (quenching of LBD-Trp), in words [1]	NR4A2-dependent transactivation (NR4A2 [5])	Cleavage of caspase 7, 8 and PARP (glioblastoma cells [6])	Annexin V staining (glioblastoma cells [8])	other results
Clc1ccccc1C(c1c[nH]c2ccccc12)c1c[nH]c2ccccc12 [CDIM-2-Cl]	gave similar results				
Clc1cccc(C(c2c[nH]c3ccccc23)c2c[nH]c3ccccc23)c1 [CDIM-3-Cl]	gave similar results				
Brc1ccc(C(c2c[nH]c3ccccc23)c2c[nH]c3ccccc23)cc1 [CDIM-4-Br, 1-bis(3′indolyl)-1-(p-bromophenyl)methane]					Induction of VIP in pancreatic cancer cells [2]: induced vasoactive intestinal peptide (VIP)
Clc1ccc(C(c2c[nH]c3ccccc23)c2c[nH]c3ccccc23)cc1 [CDIM-4-Cl]	do not quench the LBD-Trp	activated NR4A2-dependent transactivation	cleaved caspase 7, 8 and PARP cleavage	induced Annexin V staining	MPTP-induced loss of dopaminergic neurons (dopaminergic neurons): inhibited; Crossing of the blood-brain barrier [3]: cross the blood-brain barrier; Crossing of the blood-brain barrier ([3]; listed as DIM-C-pPhCl): crosses the blood-brain barrier and accumulates in the brain; Tumor spheroid invasion (15037 cells): inhibited tumor spheroid invasion; NR4A2-dependent transactivation in GBM cells (FIGS. 4A-4C) (NR4A2 [4]): inhibited NR4A2-dependent transactivation; Tumor weight ([7]; 30 mg/kg/day i.p. for three weeks, athymic nude mice bearing U87-MG xenograft): significantly decreased tumor weight; Cleaved caspase 8 in tumors ([7]; 30 mg/kg/day, western blot of tumor lysates vs vehicle controls): significant upregulation of cleaved caspase 8; Induction of VIP in pancreatic cancer cells [2]: induced vasoactive intestinal peptide (VIP)
Oc1cc(Br)ccc1C(c1c[nH]c2ccccc12)c1c[nH]c2ccccc12 [Ligand 2-OH-4-Br]		induced NR4A2-dependent transactivation	cleaved caspase 7, 8 and PARP cleavage	induced Annexin V staining	Induction of VIP expression ([9]; bis-indole analogs 5, 10 and 15 μM, CQ 100, 150 and 200 μM, AQ 50, 75 and 100 μM): ≤ 330 fold
FC(F)(F)c1cc(C(c2c[nH]c3ccccc23)c2c[nH]c3ccccc23)ccc1Cl [Ligand 3-CF3-4-Cl]		induced NR4A2-dependent transactivation	cleaved caspase 7, 8 and PARP cleavage	induced Annexin V staining	
Cn1cc(C(c2ccc(O)cc2)c2cn(C)c3ccccc23)c2ccccc21 [N—Me-4-OH]		induced NR4A2-dependent transactivation			Induction of VIP, in words [10]: more potent inducer of VIP in Panc1 and Panc28 cells than either CQ or AQ; Induction of VIP, in words [9]: more potent inducer of VIP in Panc1 and Panc28 cells than either CQ or AQ
O=S(=O)(O)c1cccc2c(-c3ccc(Nc4ccccc4)c4c(S(=O)(=O)O)cccc34)ccc(Nc3ccccc3)c12 [bisANS]					NR4A1/bisANS binding stoichiometry (Bmax) (NR4A1 LBD): 0.80 mol bisANS/mol NR4A1
